According to patent publication US12011428B2, “Compositions and methods for stimulating ventilatory and/or respiratory drive” (priority 2022, dated 2024):

Legend:
[1] = tested on: freely-moving adult male Sprague—Dawley rats
[2] = tested on: adult male Sprague—Dawley rats; details: rat, in vivo, iv
[3] = tested on: adult male Sprague—Dawley rats; assay: Arterial blood gas measurements and A-a gradient; type: in vivo, rat; details: GSHee 100 μmol/kg IV alone
[4] = tested on: adult male Sprague—Dawley rats; assay: Body temperature (BT), rectal thermistor probe; details: for Body temperature, Post-drug: conscious rats
[5] = tested on: adult male Sprague—Dawley rats; assay: Behaviors observed after injection; type: in vivo, rat; details: GSHee 100 μmol/kg IV
[6] = GSH 100 μmol/kg IV, % change from Pre-values
[7] = GSH 100 μmol/kg IV, sum of the 15 individual % change from pre values

N[C@@H](CCC(=O)N[C@@H](CS)C(=O)NCC(=O)O)C(=O)O [GSH, glutathione]
Freq (frequency of breathing) ([1]; GSH 100 μmol/kg IV alone): prompt but short-lived increase | MV (minute ventilation) ([1]; GSH 100 μmol/kg IV alone): short-lived increases | TV (tidal volume) ([1]; GSH 100 μmol/kg IV alone): minor effects | Frequency (breaths/min), Peak drug response, % [1, 6]: +41% | Minute Ventilation (ml/min), Peak drug response, % [1, 6]: 61% | Tidal Volume (ml), Peak drug response, % [1, 6]: +15% | Frequency, Total drug response, % [1, 7]: +13% | Minute Ventilation, Total drug response, % [1, 7]: 15% | Tidal Volume, Total drug response, % [1, 7]: +2%

CCOC(=O)CNC(=O)[C@H](CS)NC(=O)CC[C@H](N)C(=O)O [GSHee, L-glutathione ethyl ester]
tail-flick latency (TFL) [2]: did not alter TFL | A-a gradient [3]: did not affect | arterial blood pCO2 [3]: minor but significant decrease | arterial blood pH [3]: minor but significant increases | arterial blood pO2 [3]: minor but significant increases | arterial blood sO2 [3]: did not affect | body temperature (BT) ([4]; 5 and 15 min post-injection of GSHee 100 μmol/kg IV): Neither vehicle nor GSHee affected BT | Body temperature, Post-drug ([4]; 5 min after GSHee 100 μmol/kg IV): 37.9 ± 0.1 | Body temperature, Post-drug ([4]; 15 min after GSHee 100 μmol/kg IV): 37.9 ± 0.1 | behavioral signs (movement, squealing, scratching or sniffing) after injection [5]: did not display any obvious behavioral signs
